Values quoted from earlier work as cited in PubChem BioAssay AID1259409 (Chemical Carcinogenesis Research Information System (CCRIS), 2018).

Test system: rodent chemically induced tumor inhibition, incidence and multiplicity
Assay: CCRIS tumor inhibitor studies
Conditions: Carcinogen: 7,12-DIMETHYLBENZ[A]ANTHRACENE, 57-97-6, Route [Inhibitor]: ORAL, Promoter: NONE USED

O=[Se](O)O
tumour outcome (control, treated, inhibition, significance) (Dose [Inhibitor]: 0, 0.5 UG/G IN DIET BEGINNING 2 WK PRIOR TO CARCINOGEN DOSE AND CONTINUING FOR 2 WK POST CARCINOGEN DOSE FOLLOWED BY BAS, Species: RAT, Strain/Sex: SPRAGUE-DAWLEY/FEMALE, Target Tissue: Type of Lesion: MAMMARY GLAND: TUMOR, Dose [Carcinogen]: 5 MG/KG): 52%, 32%, 38%, not calculated | tumour outcome (control, treated, inhibition, significance) (Dose [Inhibitor]: 0, 1 UG/G IN DIET BEGINNING 2 WK PRIOR TO CARCINOGEN DOSE AND CONTINUING FOR 2 WK POST CARCINOGEN DOSE FOLLOWED BY BASAL, Species: RAT, Strain/Sex: SPRAGUE-DAWLEY/FEMALE, Target Tissue: Type of Lesion: MAMMARY GLAND: TUMOR, Dose [Carcinogen]: 5 MG/KG): 52%, 24%, 54%, not calculated | tumour outcome (control, treated, inhibition, significance) (Dose [Inhibitor]: 0, 2 PPM (AS SELENIUM) IN DIET BEGINNING 2 WK PRIOR TO CARCINOGEN DOSE AND CONTINUING FOR DURATION OF STUDY (STUDY DURAT, Species: RAT, Strain/Sex: SPRAGUE-DAWLEY/FEMALE, Target Tissue: Type of Lesion: MAMMARY GLAND: ADENOCARCINOMA, Dose [Carcinogen]: 10 MG ONCE AT 55 D OF AGE): 88%, 72%, 18%, not significant | tumour outcome (control, treated, inhibition, significance) (Dose [Inhibitor]: 0, 2 UG/G IN DIET BEGINNING 2 WK PRIOR TO CARCINOGEN DOSE AND CONTINUING FOR 2 WK POST CARCINOGEN DOSE FOLLOWED BY BASAL, Species: RAT, Strain/Sex: SPRAGUE-DAWLEY/FEMALE, Target Tissue: Type of Lesion: MAMMARY GLAND: TUMOR, Dose [Carcinogen]: 5 MG/KG): 52%, 14%, 73%, not calculated | tumour outcome (control, treated, inhibition, significance) (Dose [Inhibitor]: 0, 2.5 MG/KG IN DIET TO ANIMALS ON VITAMIN E ADEQUATE DIETS (50 MG/KG) (STUDY DURATION: 20 WK), Species: RAT, Strain/Sex: SPRAGUE-DAWLEY/FEMALE, Target Tissue: Type of Lesion: MAMMARY GLAND: TUMOR, Dose [Carcinogen]: 5 MG ONCE AT 50 D OF AGE): 19/25 (76%), 10/25 (40%), 47%, not calculated | tumour outcome (control, treated, inhibition, significance) (Dose [Inhibitor]: 0, 2.5 MG/KG IN DIET TO ANIMALS ON VITAMIN E DEFICIENT DIETS (10 MG/KG) (STUDY DURATION: 20 WK), Species: RAT, Strain/Sex: SPRAGUE-DAWLEY/FEMALE, Target Tissue: Type of Lesion: MAMMARY GLAND: TUMOR, Dose [Carcinogen]: 5 MG ONCE AT 50 D AGE): 21/25 (84%), 17/25 (68%), 19%, not calculated | tumour outcome (control, treated, inhibition, significance) (Dose [Inhibitor]: 0, 3 PPM (AS SELENIUM) IN DIET BEGINNING 2 WK PRIOR TO CARCINOGEN DOSE AND CONTINUING FOR DURATION OF STUDY (STUDY DURAT, Species: RAT, Strain/Sex: SPRAGUE-DAWLEY/FEMALE, Target Tissue: Type of Lesion: MAMMARY GLAND: ADENOCARCINOMA, Dose [Carcinogen]: 10 MG ONCE AT 55 D OF AGE): 88%, 52%, 41%, p<0.05 | tumour outcome (control, treated, inhibition, significance) (Dose [Inhibitor]: 0, 3 UG/ML IN DRINKING WATER FROM 40-90 D OF AGE THEN 0, 2 UG/ML FROM 90-180 D OF AGE AND 0, 1 UG/ML FROM 180-240 D OF A, Dose [Inhibitor]: 0, 3 UG/ML IN DRINKING WATER FROM 40-90 D OF AGE THEN 0, 2 UG/ML FROM 90-180 D OF AGE AND 0, 1 UG/ML FROM 180-240 D OF A, Species: RAT, Strain/Sex: SPRAGUE DAWLEY/FEMALE, Target Tissue: Type of Lesion: MAMMARY GLAND: ADENOCARCINOMA, FIBROADENOMA, Dose [Carcinogen]: 5 MG IN 0.2 ML SESAME OIL 1/2 D FOR 12 D BEGINNING AT 50 D OF AGE): 100%, 52%, 48%, p<0.001 | tumour outcome (control, treated, inhibition, significance) (Dose [Inhibitor]: 0, 4 PPM IN DRINKING WATER BEGINNING 2 WK PRIOR TO CARCINOGEN DOSE AND CONTINUING FOR 1 WK POST CARCINOGEN DOSE (STUDY D, Species: RAT, Strain/Sex: SPRAGUE-DAWLEY/FEMALE, Target Tissue: Type of Lesion: MAMMARY GLAND: TUMOR, Dose [Carcinogen]: 10 MG IN 1 ML OLIVE OIL ONCE AT 7 WK OF AGE): 19/21 (91%), 19/21 (91%), 0% | tumour outcome (control, treated, inhibition, significance) (Dose [Inhibitor]: 0, 4 UG/G IN DIET BEGINNING 2 WK PRIOR TO CARCINOGEN DOSE AND CONTINUING FOR 2 WK POST CARCINOGEN DOSE FOLLOWED BY BASAL, Species: RAT, Strain/Sex: SPRAGUE-DAWLEY/FEMALE, Target Tissue: Type of Lesion: MAMMARY GLAND: TUMOR, Dose [Carcinogen]: 5 MG/KG): 52%, 10%, 81%, not calculated | tumour outcome (control, treated, inhibition, significance) (Dose [Inhibitor]: 0, 4 UG/G IN DIET BEGINNING 2 WK PRIOR TO CARCINOGEN DOSE AND CONTINUING FOR DURATION OF STUDY (STUDY DURATION: 43 WK), Species: RAT, Strain/Sex: SPRAGUE-DAWLEY/FEMALE, Target Tissue: Type of Lesion: MAMMARY GLAND: TUMOR, Dose [Carcinogen]: 5 MG/KG): 52%, 5%, 90%, not calculated | tumour outcome (control, treated, inhibition, significance) (Dose [Inhibitor]: 0.2, 2 PPM IN DIET BEGINNING 3 D PRIOR TO CARCINOGEN DOSE AND CONTINUING FOR 8 MO (STUDY DURATION: 8 MO), Species: MOUSE, Strain/Sex: BALB/FEMALE, Target Tissue: Type of Lesion: MAMMARY GLAND: ADENOCARCINOMA, Dose [Carcinogen]: 1 MG/WK FOR 6 WK): 12/31 (39%), 4/34 (12%), 69%, p<0.025 | tumour outcome (control, treated, inhibition, significance) (Dose [Inhibitor]: 0.5 PPM IN 5% CORN OIL DIET DAILY STARTING 29 D BEFORE CARCINOGEN TREATMENT AND CONTINUING FOR DURATION OF STUDY (STUDY, Species: RAT, Strain/Sex: SPRAGUE-DAWLEY/FEMALE, Target Tissue: Type of Lesion: MAMMARY GLAND: ADENOCARCINOMA, Dose [Carcinogen]: 5 MG IN CORN OIL ONCE AT 50 D OF AGE): 12/30 (40%), 11/30 (37%), 8%, not significant | tumour outcome (control, treated, inhibition, significance) (Dose [Inhibitor]: 0.5 PPM IN 25% CORN OIL DIET DAILY STARTING 29 D BEFORE CARCINOGEN TREATMENT AND CONTINUING FOR DURATION OF STUDY (STUDY, Species: RAT, Strain/Sex: SPRAGUE-DAWLEY/FEMALE, Target Tissue: Type of Lesion: MAMMARY GLAND: ADENOCARCINOMA, Dose [Carcinogen]: 5 MG IN CORN OIL ONCE AT 50 D OF AGE): 21/30 (70%), 20/29 (69%), 1%, not significant | tumour outcome (control, treated, inhibition, significance) (Dose [Inhibitor]: 0.5 PPM IN DIET DAILY STARTING 1 WK PRIOR TO CARCINOGEN TREATMENT AND CONTINUING FOR DURATION OF STUDY (STUDY DURATION:, Species: MOUSE, Strain/Sex: BD2F1/FEMALE, Target Tissue: Type of Lesion: MAMMARY GLAND: TUMOR, Dose [Carcinogen]: 1 MG IN 0.2 ML COTTONSEED OIL 1/WK FOR 6 WK STARTING AT 8 WK OF AGE): 18/32 (56%), 10/33 (30%), 46%, not calculated
